Measurements published in PubChem BioAssay (NCI).
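Exposure lasted 48 hours, with cells grown in 96-well plates and compounds tested at five concentrations. The concentration for 50% growth inhibition is given as GI50. At the TGI there is no net growth.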

Legend:
Experiment in all cases: NCI anticancer screen, dose series, 48 h
DMS 114 small cell lung = tested on: DMS 114 small cell lung
DMS 273 small cell lung = tested on: DMS 273 small cell lung
EKVX NSCLC = tested on: EKVX NSCLC
HOP-18 NSCLC = tested on: HOP-18 NSCLC
KM20L2 colon = tested on: KM20L2 colon
M19-MEL melanoma = tested on: M19-MEL melanoma
RXF-631 renal = tested on: RXF-631 renal
SNB-78 CNS = tested on: SNB-78 CNS
XF 498 CNS = tested on: XF 498 CNS
HS 578T breast = tested on: HS 578T breast
T-47D breast = tested on: T-47D breast
HCC-2998 colon = tested on: HCC-2998 colon
SF-539 CNS = tested on: SF-539 CNS
SR leukemia = tested on: SR leukemia
A498 renal = tested on: A498 renal

COc1cc(C2C(C(=O)O)=C(COC(C)=O)Oc3cc4c(cc32)OCO4)cc(OC)c1OC (stereo unspecified)
TGI (DMS 114 small cell lung): > 100 µM
TGI (DMS 273 small cell lung): > 100 µM
TGI (EKVX NSCLC): > 100 µM
TGI (HOP-18 NSCLC): > 100 µM
TGI (KM20L2 colon): > 100 µM
TGI (M19-MEL melanoma): > 100 µM
TGI (RXF-631 renal): > 100 µM
TGI (SNB-78 CNS): > 100 µM
TGI (XF 498 CNS): > 100 µM

CO/N=C(\C)COc1ccc2c(=O)c(-c3ccccc3)coc2c1
GI50 (HS 578T breast): 63.1 µM
TGI (HS 578T breast): > 100 µM
GI50 (T-47D breast): 17.3 µM
TGI (T-47D breast): 48.6 µM

CCOC(=O)C(O)(NC(=O)c1ccccc1F)C(F)(F)F (stereo unspecified)
TGI (EKVX NSCLC): > 100 µM
TGI (HCC-2998 colon): > 100 µM
TGI (HS 578T breast): > 100 µM
TGI (SF-539 CNS): > 100 µM
TGI (SR leukemia): > 100 µM
TGI (T-47D breast): > 100 µM

CCc1ccc2nc(-c3ccc(O)cc3)sc2c1
TGI (A498 renal): 34.2 µM
TGI (SF-539 CNS): 27.8 µM
